pIC50: −log10 of the molar value. Where two headings read alike, the source gives them in different places.
What was measured:
Assay type in all cases: binding
[1] = target: T1, CIB1 and αIIb interaction (GST-CIB1 : F-αIIb peptide) (Homo sapiens, UniProt Q99828); assay: FP assay, 384-well format (screen); parameters: 384-well SCREEN Efficacy (%): concentration or dose not given beside the values; conditions: F-αIIb peptide; for 384-well SCREEN Confirm?: YES/NO; for pIC50: read-out: 384-well SCREEN IC50
T1 construct: made in house; host or cells: BL-21 plus RIL cells (E. coli)
T1 sequence (Q99828 1-191): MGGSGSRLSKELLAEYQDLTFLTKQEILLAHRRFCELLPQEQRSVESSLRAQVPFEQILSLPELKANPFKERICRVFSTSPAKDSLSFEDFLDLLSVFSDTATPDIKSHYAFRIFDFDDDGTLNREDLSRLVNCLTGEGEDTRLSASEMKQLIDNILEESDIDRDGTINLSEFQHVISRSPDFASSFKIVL

[2] = target: T2, GST-CIB1 : F-scrambled peptide (Homo sapiens, UniProt Q99828); assay: FP scrambled-peptide counter screen, 384-well format; conditions: F-scrambled peptide; for 384-well COUNTERSCREEN Confirm?: *: Curve in opposite direction; for pIC50: read-out: 384-well COUNTERSCREEN IC50
T2 construct: made in house; host or cells: BL-21 plus RIL cells (E. coli)
T2 sequence (Q99828 1-191): T1 sequence (Q99828 1-191)

[3] = target: T3, CIB1 and αIIb interaction (CIB1-GST : F-αIIb peptide) (Homo sapiens, UniProt Q99828); assay: FP assay, 1536-well qHTS format (primary and confirmatory screen); conditions: for CONFIRMATORY SCREEN Confirm?: YES/NO call; for CONFIRMATORY SCREEN Efficacy (%) / Efficacy (%): negative = inhibition
T3 construct: made in house; host or cells: BL-21 plus RIL cells (E. coli)
T3 sequence (Q99828 1-191): T1 sequence (Q99828 1-191)

[4] = target: T2, GST-CIB1 : F-scrambled peptide; assay: FP scrambled-peptide counter screen, 1536-well format; conditions: for COUNTERSCREEN Confirm?: YES/NO call
[5] = confirmatory screen, qHTS curve class, negative sign = inhibitory curve
[6] = confirmatory screen, read-out: CONFIRMATORY SCREEN IC50
[7] = qHTS primary screen hits, Table S2
[8] = qHTS primary screen hits, Table S2, negative sign = inhibitory curve, several classes where COUNT > 1
[9] = qHTS primary screen hits, Table S2, read-out: IC50
[10] = scrambled-peptide counterscreen
[11] = scrambled-peptide counterscreen, qHTS curve class
[12] = qHTS FP screen hits, Table S2, read-out: IC50

| SMILES | 384-well SCREEN Efficacy (%) [1] | 384-well SCREEN Confirm? [1] | pIC50 [1] | 384-well COUNTERSCREEN Efficacy (%) [2] | 384-well COUNTERSCREEN Confirm? [2] | pIC50 [2] | CONFIRMATORY SCREEN Confirm? ([3]; confirmatory screen) | CONFIRMATORY SCREEN Curve Class [3, 5] | CONFIRMATORY SCREEN Efficacy (%) ([3]; confirmatory screen) | pIC50 [3, 6] | Efficacy (%) [3, 7] | pIC50 [3, 9] | COUNTERSCREEN Efficacy (%) [4, 10] | COUNTERSCREEN Confirm? [4, 10] | COUNTERSCREEN Curve Class [4, 11] | Efficacy (%) ([3]; qHTS FP screen hits, Table S2) | pIC50 [3, 12] | other results |
| --- | --- | --- | --- | --- | --- | --- | --- | --- | --- | --- | --- | --- | --- | --- | --- | --- | --- | --- |
| O=C(Nc1nc(-c2ccccc2)cs1)c1ccncc1NS(=O)(=O)c1cccc2cccnc12.O=C(O)C(F)(F)F [NCGC00344938-01] | 16% | YES | 5.20 | 18% | YES | < 3.92 | YES | -2.2 | -93% | 4.45 | -56% | 4.40 | -33% | YES | -2.4 | – | – | Curve Class [3, 8]: -2.2; pIC50 ([4]; scrambled-peptide counterscreen, read-out: COUNTERSCREEN IC50): 4.15 |
| O=C(CN(c1cccc(Br)c1)S(=O)(=O)c1ccccc1)NN=CC1=CC(=[N+]([O-])O)C=CC1=O.O=C(O)C(F)(F)F [NCGC00248455-01] | 40% | YES | 4.95 | 52% | – | 4.80 | YES | -2.1 | -91% | 4.50 | -62% | 4.75 | -13% | YES | 4 | – | – | Curve Class ([3]; qHTS primary screen hits, Table S2, negative sign = inhibitory curve): -2.2 |
| O=C(O)C(F)(F)F.O=C(O)c1ccc(-c2ccc3ncnc(NCc4nccs4)c3c2)o1 [NCGC00229620-01] | 40% | YES | 4.75 | 48% | – | 4.50 | YES | -2.4 | -55% | 4.35 | – | – | -21% | YES | 4 | -25% | 5.00 | – |
| CSC(Cc1ccc(Cl)cc1)C(=O)Nc1ccc(Cl)cc1C(=O)O.O=C(O)C(F)(F)F (stereo not shown) [NCGC00189231-01] | 31% | YES | 3.92 | 29% | YES | < 3.92 | YES | -2.4 | -50% | 4.35 | -23% | 4.65 | 0% | YES | 4 | – | – | Curve Class [3, 8]: -2.4 |
| Cc1cc(S(=O)(=O)Nc2cnccc2C(=O)Nc2nc(-c3ccccc3)cs2)c(C)o1.O=C(O)C(F)(F)F [NCGC00345029-01] | 42% | YES | 4.70 | 16% | YES | < 3.92 | YES | -1.1 | -83% | – | – | – | 10% | YES | 4 | – | – | – |
| Cl.O=C1c2c(O)ccc(O)c2C(=O)c2c(NCCNCCO)ccc(NCCNCCO)c21 [NCGC00015693-04] | 80% | YES | 5.39 | 75% | – | 5.24 | – | – | – | – | – | – | – | – | – | -85% | 4.60 | Efficacy (%) (confirmatory screen) ([3]; confirmatory screen): -112%; Confirm? (confirmatory screen) ([3]; confirmatory screen, YES/NO): YES; Curve Class (confirmatory screen) [3, 5]: -1.1; IC50 ([3]; confirmatory screen, read-out: IC50 [μM] (confirmatory screen)): 20 µM; Efficacy (%) (counterscreen) ([4]; counterscreen): -125%; Curve Class (counterscreen) ([4]; counterscreen, qHTS curve class, negative sign = inhibitory curve): -1.1; IC50 ([4]; counterscreen, read-out: IC50 [μM] (counterscreen)): 20 µM |
| CCOC(=O)c1c(NC(=O)C2CC(Cl)=CCC2C(=O)O)sc2c1CCCCC2.O=C(O)C(F)(F)F (stereo not shown) [NCGC00238648-01] | 15% | – | < 3.92 | 12% | – | < 3.92 | YES | -2.2 | -59% | – | – | – | 16% | YES | 4 | -22% | 4.45 | – |
